# In US20070049593A1 (priority 2004, published 2007):
# Where a name gives a salt, the structure may show the parent alone.
# Biological target: T1, HCV polymerase (Hepatitis C virus genotype 1b, UniProt P26663)
# T1 construct: a region encoding NS5B (J Virol 1991 March, 65(3), 1105-13, 544 amino acids after deletion of 47 amino acids on the C-terminal); 6xHis (C); made in house; host or cells: Escherichia coli
# Assay: biochemical
# Set-up: species or system HCV BK strain
# Procedure, shortened: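 Recombinant HCV BK-strain NS5B (C-terminal 47 aa deleted, His6-tagged, E. coli), 0.5 μg/ml, run with 5 μg/ml in vitro-transcribed RNA template (polyU/3′X), ATP/GTP/CTP 50 μM, UTP 2 μM plus [3H]UTP, pH 7.5, 25° C, 90 min. TCA-precipitated RNA counted by scintillation; IC50 from activity with vs without compound.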
# T1 sequence (P26663 2420-2963): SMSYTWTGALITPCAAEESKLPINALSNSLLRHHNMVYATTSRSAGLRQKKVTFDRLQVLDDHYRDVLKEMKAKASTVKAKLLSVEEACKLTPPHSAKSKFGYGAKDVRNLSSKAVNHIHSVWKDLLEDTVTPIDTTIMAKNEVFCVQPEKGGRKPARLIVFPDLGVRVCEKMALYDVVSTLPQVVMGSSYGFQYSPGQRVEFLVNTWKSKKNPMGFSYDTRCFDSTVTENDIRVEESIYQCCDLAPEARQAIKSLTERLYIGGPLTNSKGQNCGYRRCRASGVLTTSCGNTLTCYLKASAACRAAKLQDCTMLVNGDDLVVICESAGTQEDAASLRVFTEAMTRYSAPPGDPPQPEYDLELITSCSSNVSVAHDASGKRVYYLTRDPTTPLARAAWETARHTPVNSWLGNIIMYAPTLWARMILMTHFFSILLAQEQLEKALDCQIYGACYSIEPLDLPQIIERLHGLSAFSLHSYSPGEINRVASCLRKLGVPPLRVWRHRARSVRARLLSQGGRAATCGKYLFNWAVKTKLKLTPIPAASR
row,SMILES,IC50 [µM]
1,"CN(C)CCN1CCn2c(c(C3CCCCC3)c3ccc(C(=O)O)cc32)-c2ccccc21 [Example 1-99, 13-cyclohexyl-5-(2-dimethylaminoethyl)-6,7-dihydro-5H-benzo[5,6][1,4]diazepino[7,1-a]indole-10-carboxylic acid dihydrochloride]",< 0.1
2,"O=C(O)c1ccc2c(C3CCCCC3)c3n(c2c1)CCNc1cc(OCc2cc(N4CCCC4=O)ccc2N2CCOCC2)ccc1-3 [Example 1-100, 13-cyclohexyl-3-[2-(morpholin-4-yl)-5-(2-oxopyrrolidin-1-yl)benzyloxy]-6,7-dihydro-5H-benzo[5,6][1,4]diazepino[7,1-a]indole-10-carboxylic acid dihydrochloride]",< 0.1
3,"CS(=O)(=O)c1ccc(N2CCOCC2)c(COc2ccc3c(c2)NCCn2c-3c(C3CCCCC3)c3ccc(C(=O)O)cc32)c1 [Example 1-101, 13-cyclohexyl-3-[5-methanesulfonyl-2-(morpholin-4-yl)benzyloxy]-6,7-dihydro-5H-benzo[5,6][1,4]diazepino[7,1-a]indole-10-carboxylic acid dihydrochloride]",< 0.1
4,"CCN1CCN(C(=O)CN2CCn3c(c(C4CCCCC4)c4ccc(C(=O)NC(C)=O)cc43)-c3ccccc32)CC1 [Example 1-102, N-acetyl-13-cyclohexyl-5-[2-(4-ethylpiperazin-1-yl)-2-oxoethyl]-6,7-dihydro-5H-benzo[5,6][1,4]diazepino[7,1-a]indole-10-carboxamide]",< 0.1
5,"CN1CCn2c(c(C3CCCCC3)c3ccc(C(=O)O)cc32)-c2ccc(OCc3cc(S(C)(=O)=O)ccc3N3CCOCC3)cc21 [Example 1-103, 13-cyclohexyl-3-[5-methanesulfonyl-2-(morpholin-4-yl)benzyloxy]-5-methyl-6,7-dihydro-5H-benzo[5,6][1,4]diazepino[7,1-a]indole-10-carboxylic acid dihydrochloride]",< 0.1
6,"COC(=O)N1CCN(CCN2CCn3c(c(C4CCCCC4)c4ccc(C(=O)O)cc43)-c3ccccc32)CC1 [Example 1-104, 13-cyclohexyl-5-[2-(4-methoxycarbonylpiperazin-1-yl)ethyl]-6,7-dihydro-5H-benzo[5,6][1,4]diazepino[7,1-a]indole-10-carboxylic acid dihydrochloride]",< 0.1
7,"O=C(O)c1ccc2c(C3CCCCC3)c3n(c2c1)CCN(CCCOC1CCCCO1)c1ccccc1-3 (stereo not drawn) [Example 1-105, 13-cyclohexyl-5-[3-(tetrahydropyran-2-yloxy)propyl]-6,7-dihydro-5H-benzo[5,6][1,4]diazepino[7,1-a]indole-10-carboxylic acid]",< 0.1
8,"O=C(O)c1ccc2c(C3CCCCC3)c3n(c2c1)CCN(CC(=O)N1CCCC(O)C1)c1ccccc1-3 (stereo not drawn) [Example 1-106, 13-cyclohexyl-5-[2-(3-hydroxypiperidin-1-yl)-2-oxoethyl]-6,7-dihydro-5H-benzo[5,6][1,4]diazepino[7,1-a]indole-10-carboxylic acid monohydrochloride]",< 0.1
9,"O=C(O)c1ccc2c(C3CCCCC3)c3n(c2c1)CCN(CCN1CCOCC1)c1cc(F)ccc1-3 [Example 1-107, 13-cyclohexyl-3-fluoro-5-[2-(morpholin-4-yl)ethyl]-6,7-dihydro-5H-benzo[5,6][1,4]diazepino[7,1-a]indole-10-carboxylic acid dihydrochloride]",< 0.1
10,"Cc1ccc2c(c1)N(CCN1CCCCC1)CCn1c-2c(C2CCCCC2)c2ccc(C(=O)O)cc21 [Example 1-108, 13-cyclohexyl-3-methyl-5-[2-(piperidin-1-yl)ethyl]-6,7-dihydro-5H-benzo[5,6][1,4]diazepino[7,1-a]indole-10-carboxylic acid dihydrochloride]",< 0.1
11,"O=C(O)c1ccc2c(C3CCCCC3)c3n(c2c1)CCN(CC(=O)N1CCOCC1)c1cc(F)ccc1-3 [Example 1-109, 13-cyclohexyl-3-fluoro-5-[2-(morpholin-4-yl)-2-oxoethyl]-6,7-dihydro-5H-benzo[5,6][1,4]diazepino[7,1-a]indole-10-carboxylic acid monohydrochloride]",< 0.1
12,"CCN1CCN(CCN2CCn3c(c(C4CCCCC4)c4ccc(C(=O)O)cc43)-c3ccc(C)cc32)CC1 [Example 1-110, 13-cyclohexyl-5-[2-(4-ethylpiperazin-1-yl)ethyl]-3-methyl-6,7-dihydro-5H-benzo[5,6][1,4]diazepino[7,1-a]indole-10-carboxylic acid trihydrochloride]",< 0.1
13,"O=C(O)c1ccc2c(C3CCCCC3)c3n(c2c1)CCN(CCCN1CCCCC1)c1ccccc1-3 [Example 1-111, 13-cyclohexyl-5-[3-(piperidin-1-yl)propyl]-6,7-dihydro-5H-benzo[5,6][1,4]diazepino[7,1-a]indole-10-carboxylic acid dihydrochloride]",< 0.1
14,"O=C(O)c1ccc2c(C3CCCCC3)c3n(c2c1)CCN(CCCO)c1ccccc1-3 [Example 1-112, 13-cyclohexyl-5-(3-hydroxypropyl)-6,7-dihydro-5H-benzo[5,6][1,4]diazepino[7,1-a]indole-10-carboxylic acid monohydrochloride]",< 0.1
15,"O=C(O)c1ccc2c(C3CCCCC3)c3n(c2c1)CCN(CCN1CCCC(O)C1)c1ccccc1-3 (stereo not drawn) [Example 1-113, 13-cyclohexyl-5-[2-(3-hydroxypiperidin-1-yl)ethyl]-6,7-dihydro-5H-benzo[5,6][1,4]diazepino[7,1-a]indole-10-carboxylic acid dihydrochloride]",< 0.1
16,"O=C(O)c1ccc2c(C3CCCCC3)c3n(c2c1)CCN(CC(=O)N1CCCCC1)c1cc(F)ccc1-3 [Example 1-114, 13-cyclohexyl-3-fluoro-5-[2-oxo-2-(piperidin-1-yl)ethyl]-6,7-dihydro-5H-benzo[5,6][1,4]diazepino[7,1-a]indole-10-carboxylic acid monohydrochloride]",< 0.1
17,"Cc1ccc2c(c1)N(CC(=O)N1CCCCC1)CCn1c-2c(C2CCCCC2)c2ccc(C(=O)O)cc21 [Example 1-115, 13-cyclohexyl-3-methyl-5-[2-oxo-2-(piperidin-1-yl)ethyl]-6,7-dihydro-5H-benzo[5,6][1,4]diazepino[7,1-a]indole-10-carboxylic acid monohydrochloride]",< 0.1
18,"O=C(O)c1ccc2c(C3CCCCC3)c3n(c2c1)CCN(CCN1CCCCC1)c1cc(F)ccc1-3 [Example 1-116, 13-cyclohexyl-3-fluoro-5-[2-(piperidin-1-yl)ethyl]-6,7-dihydro-5H-benzo[5,6][1,4]diazepino[7,1-a]indole-10-carboxylic acid dihydrochloride]",< 0.1
19,"CCN1CCN(C(=O)CN2CCn3c(c(C4CCCCC4)c4ccc(C(=O)O)cc43)-c3ccc(C)cc32)CC1 [Example 1-117, 13-cyclohexyl-5-[2-(4-ethylpiperazin-1-yl)-2-oxoethyl]-3-methyl-6,7-dihydro-5H-benzo[5,6][1,4]diazepino[7,1-a]indole-10-carboxylic acid dihydrochloride]",< 0.1
20,"CC(=O)N1CCC(CN2CCn3c(c(C4CCCCC4)c4ccc(C(=O)O)cc43)-c3ccccc32)CC1 [Example 1-118, 5-(1-acetylpiperidin-4-ylmethyl)-13-cyclohexyl-6,7-dihydro-5H-benzo[5,6][1,4]diazepino[7,1-a]indole-10-carboxylic acid monohydrochloride]",< 0.1
21,"CC(C)N1CCC(CCN2CCn3c(c(C4CCCCC4)c4ccc(C(=O)O)cc43)-c3ccccc32)CC1 [Example 1-119, 13-cyclohexyl-5-[2-(1-isopropylpiperidin-4-yl)ethyl]-6,7-dihydro-5H-benzo[5,6][1,4]diazepino[7,1-a]indole-10-carboxylic acid dihydrochloride]",< 0.1
22,"O=C(O)c1ccc2c(C3CCCCC3)c3n(c2c1)CCN(CC1CCOCC1)c1ccccc1-3 [Example 1-120, 13-cyclohexyl-5-(tetrahydropyran-4-ylmethyl)-6,7-dihydro-5H-benzo[5,6][1,4]diazepino[7,1-a]indole-10-carboxylic acid monohydrochloride]",< 0.1
23,"CC1CCCN(C(=O)CN2CCn3c(c(C4CCCCC4)c4ccc(C(=O)O)cc43)-c3ccccc32)C1 (stereo not drawn) [Example 1-122, 13-cyclohexyl-5-[2-(3-methylpiperidin-1-yl)-2-oxoethyl]-6,7-dihydro-5H-benzo[5,6][1,4]diazepino[7,1-a]indole-10-carboxylic acid monohydrochloride]",< 0.1
24,"CCN1CCC(=CCN2CCn3c(c(C4CCCCC4)c4ccc(C(=O)O)cc43)-c3ccccc32)CC1 [Example 1-123, 13-cyclohexyl-5-[2-(1-ethylpiperidin-4-ylidene)ethyl]-6,7-dihydro-5H-benzo[5,6][1,4]diazepino[7,1-a]indole-10-carboxylic acid dihydrochloride]",< 0.1
25,"CC(C)C1CCN(C(=O)CN2CCn3c(c(C4CCCCC4)c4ccc(C(=O)O)cc43)-c3ccccc32)CC1 [Example 1-124, 13-cyclohexyl-5-[2-(4-isopropylpiperidin-1-yl)-2-oxoethyl]-6,7-dihydro-5H-benzo[5,6][1,4]diazepino[7,1-a]indole-10-carboxylic acid monohydrochloride]",< 0.1
26,"COC1CCCN(C(=O)CN2CCn3c(c(C4CCCCC4)c4ccc(C(=O)O)cc43)-c3ccccc32)C1 (stereo not drawn) [Example 1-125, 13-cyclohexyl-5-[2-(3-methoxypiperidin-1-yl)-2-oxoethyl]-6,7-dihydro-5H-benzo[5,6][1,4]diazepino[7,1-a]indole-10-carboxylic acid monohydrochloride]",< 0.1
27,"O=C(O)c1ccc2c(C3CCCCC3)c3n(c2c1)CCN(Cc1ccccn1)c1ccccc1-3 [Example 1-126, 13-cyclohexyl-5-(pyridin-2-ylmethyl)-6,7-dihydro-5H-benzo[5,6][1,4]diazepino[7,1-a]indole-10-carboxylic acid dihydrochloride]",< 0.1
